Results taken from paper PMC9863562, “Design, Synthesis, and Biological Evaluation of 2-Mercaptobenzoxazole Derivatives as Potential Multi-Kinase Inhibitors” (Pharmaceuticals, 2023).

Key:
[1] = tested on: MCF-7 cells (mammary gland cancer); test: MTT cytotoxicity assay, MCF-7; type: cell-based; details: Homo sapiens, MCF7, 24 h treatment, read-out: In Vitro Cytotoxicity IC50 MCF-7
Procedure: (§1) After incubation, the cells were treated with various concentrations of the synthesized compounds and incubated for an additional 24 h. Following the drug treatment, 20 µL of 5 mg/mL MTT solution was added and incubated for 4 h. To dissolve the purple formazan that had formed, 100 µL dimethyl sulfoxide (DMSO) was added to each well. […] The percentage of relative cell viability was counted using the following formula (A570 of handled specimens/A570 of the unhandled specimen), multiplied by 100.

[2] = tested on: MDA-MB-231 cells (breast cancer); test: MTT cytotoxicity assay, MDA-MB-231; type: cell-based; details: Homo sapiens, 24 h treatment, read-out: In Vitro Cytotoxicity IC50 MDA-MB-231
Procedure: as §1

[3] = tested on: HepG2 cells (hepatocellular carcinoma); test: MTT cytotoxicity assay, HepG2; type: cell-based; details: Homo sapiens, HepG2, 24 h, 24 h treatment, read-out: In Vitro Cytotoxicity IC50 HepG2
Description: (§2) The in vitro cytotoxicity for the final target compounds, 4(a–d), 5(a–f), and 6(a–b), was preliminarily evaluated via the MTT colorimetric assay against a panel of four human cell lines, namely, the hepatocellular carcinoma (HepG2), mammary gland (MCF-7), breast cancer (MDA-MB-231) and epithelioid cervix carcinoma (HeLa).
(§3) The cytotoxicity of the target hybrids was examined by an MTT assay against HepG2, HeLa, MCF-7, and MDA-MB-231. At first, the RPMI-1640 medium with 10% fetal bovine serum was used to cultivate the cell lines. Then, antibiotics (penicillin (100 units/mL) and streptomycin (100 µg/mL)) were added in a 37 °C incubator in 5% CO2. The cell lines were seeded in a 96-well plate at a density of 1.0 × 10^4 cells/well at 37 °C under 5% CO2 for 48 h. After incubation, the cells were treated with various concentrations of the synthesized compounds and incubated for an additional 24 h. Following the drug treatment, 20 µL of 5 mg/mL MTT solution was added and incubated for 4 h. To dissolve the purple formazan that had formed, 100 µL dimethyl sulfoxide (DMSO) was added to each well. At a wavelength of 570 nm, the colorimetric assay was recorded and measured, using a plate reader BioTek EXL 800 (Agilent Technologies, Inc., Santa Clara, CA, USA). The percentage of relative cell viability was counted using the following formula (A570 of handled specimens/A570 of the unhandled specimen), multiplied by 100. The results of the cytotoxicity value were presented as the median growth inhibitory concentration (IC50) of the reagents compared to the control.

[4] = tested on: HeLa cells (epithelioid cervix carcinoma); test: MTT cytotoxicity assay, HeLa; type: cell-based; details: Homo sapiens, 24 h treatment, read-out: In Vitro Cytotoxicity IC50 Hela
Procedure: as §1

[5] = tested on: HepG2, MCF-7, MDA-MB-231 and HeLa cell lines; test: MTT cytotoxicity assay, panel of four cell lines; type: cell-based; details: Homo sapiens, range over HepG2, MCF-7, MDA-MB-231, HeLa, read-out: IC50 values, range over the tested cell lines
Description: as §2, §3

| SMILES | melting point [°C] | IC50 [1] [µM] | IC50 [2] [µM] | IC50 [3] [µM] | IC50 [4] [µM] | IC50 [5] [µM] |
| --- | --- | --- | --- | --- | --- | --- |
| COc1cc(C=NNC(=O)CSc2nc3ccccc3o2)ccc1O (mixture of isomers) [Compound 4d, (E/Z)-N′-(4-hydroxy-3-methoxybenzylidene)-2-(benzo[d]oxazol-2-ylthio)acetohydrazide] | 150 to 153 | 11.1 ± 0.9 | 4.93 ± 0.2 | 9.37 ± 0.7 | 12.9 ± 0.9 | 2.14 to 12.9 |
| N#Cc1ccc(C=NNC(=O)CSc2nc3ccccc3o2)cc1 (mixture of isomers) [Compound 4c, (E/Z)-N′-(4-cyanobenzylidene)-2-(benzo[d]oxazol-2-ylthio)acetohydrazide] | 246 to 248 | 38.6 ± 2.5 | 21.1 ± 1.6 | 34.5 ± 2.2 | 35.2 ± 2.5 |  |
| O=C(CSc1nc2ccccc2o1)NN=Cc1ccc(Cl)c(Cl)c1 (mixture of isomers) [Compound 4a, (E/Z)-N′-(3,4-dichlorobenzylidene)-2-(benzo[d]oxazol-2-ylthio)acetohydrazide] | 193 to 195 | 74.2 ± 3.5 | 75.5 ± 3.6 | 81.2 ± 3.7 | 67.6 ± 3.4 |  |
| O=C(CSc1nc2ccccc2o1)NN=Cc1ccc(OC(F)(F)F)cc1 (mixture of isomers) [Compound 4b, (E/Z)-N′-(4-(trifluoromethoxy)benzylidene)-2-(benzo[d]oxazol-2-ylthio)acetohydrazide] | 154 to 156 | 15.2 ± 1.2 | 9.72 ± 0.7 | 13.1 ± 1.1 | 19.3 ± 1.6 |  |

Further lines, with some results ahead:

| melting point [°C] | SMILES | IC50 [1] [µM] | IC50 [2] [µM] | IC50 [3] [µM] | IC50 [4] [µM] | IC50 [5] [µM] |
| --- | --- | --- | --- | --- | --- | --- |
| 223 to 225 | O=C(CSc1nc2ccccc2o1)NN=C1C(=O)Nc2ccccc21 [Compound 5a, (E/Z)-2-(benzo[d]oxazol-2-ylthio)-N′-(2-oxoindolin-3-ylidene)acetohydrazide] | 23.5 ± 1.8 | 14.6 ± 1.2 | 18 ± 1.3 | 28.9 ± 2 |  |
| 165 to 167 | O=C(CSc1nc2ccccc2o1)NN=C1C(=O)Nc2ccc([N+](=O)[O-])cc21 [Compound 5c, (E/Z)-2-(benzo[d]oxazol-2-ylthio)-N′-(5-nitro-2-oxoindolin-3-ylidene)acetohydrazide] | 48.3 ± 2.8 | 62.4 ± 3.1 | 56.2 ± 2.9 | 50.6 ± 2.9 |  |
| 225 to 227 | O=C(CSc1nc2ccccc2o1)NN=C1C(=O)Nc2ccc(F)cc21 [Compound 5f, (E/Z)-2-(benzo[d]oxazol-2-ylthio)-N′-(5-fluoro-2-oxoindolin-3-ylidene)acetohydrazide] | 70.3 ± 3.3 | 68.1 ± 3.5 | 63.7 ± 3.2 | 59.2 ± 3.1 |  |
| 230 to 233 | Cc1ccc2c(c1)C(=NNC(=O)CSc1nc3ccccc3o1)C(=O)N2 [Compound 5b, (E/Z)-2-(benzo[d]oxazol-2-ylthio)-N′-(5-methyl-2-oxoindolin-3-ylidene)acetohydrazide] | 27.4 ± 2 | 36.2 ± 2.4 | 41.7 ± 2.4 | 31.5 ± 2.3 |  |
| 218 to 221 | O=C(CSc1nc2ccccc2o1)NN=Cc1cccs1 (mixture of isomers) [Compound 6a, (E/Z)-2-(benzo[d]oxazol-2-ylthio)-N′-((thiophen-2-yl)methylene)acetohydrazide] | 42.9 ± 2.8 | 30.8 ± 2.2 | 26.4 ± 1.8 | 46.4 ± 2.7 |  |
| 264 to 267 | O=C(CSc1nc2ccccc2o1)NN=C1C(=O)Nc2ccc(Cl)cc21 [Compound 5e, (E/Z)-2-(benzo[d]oxazol-2-ylthio)-N′-(5-chloro-2-oxoindolin-3-ylidene)acetohydrazide] | 53 ± 3.1 | 51.5 ± 2.8 | 45.2 ± 2.7 | 58.4 ± 3.2 |  |
| 145 to 147 | COc1ccc2c(c1)C(=NNC(=O)CSc1nc3ccccc3o1)C(=O)N2 [Compound 5d, (E/Z)-2-(benzo[d]oxazol-2-ylthio)-N′-(5-methoxy-2-oxoindolin-3-ylidene)acetohydrazide] | 7.58 ± 0.6 | 8.44 ± 0.6 | 10.5 ± 0.9 | 6.27 ± 0.7 | 2.14 to 12.9 |
